# Publication PMC4782294, “ERK mediated upregulation of death receptor 5 overcomes the lack of p53 functionality in the diaminothiazole DAT1 induced apoptosis in colon cancer models: efficiency of DAT1 in Ras-Raf mutated cells” (Molecular Cancer, 2016)
# Legend:
# HT 29 = assay: MTT cytotoxicity assay; assay type: cell-based; conditions: Homo sapiens, HT 29, 48 h
# Description: (§1) Cells were seeded in 96 well plates. At about70 % confluency, they were treated with different concentrations of drugs either individually or in combination. After 48 h, MTT assay was done (Mossmann 1983) and absorbance was measured at 570 nm (Biorad Microplate reader). Percentage viability was plotted against the respective concentrations of the drugs and half inhibitory concentration (IC50) was calculated with the non linear regression programme of Origin.
# HCT116 p53 -/- = assay: MTT cytotoxicity assay; assay type: cell-based; conditions: Homo sapiens, HCT-116, 48 h
# Description: as §1
# SW 620 = assay: MTT cytotoxicity assay; assay type: cell-based; conditions: Homo sapiens, SW 620, 48 h
# Description: as §1
# SW 480 = assay: MTT cytotoxicity assay; assay type: cell-based; conditions: Homo sapiens, SW480, SW 480, 48 h
# Description: as §1
# HCT116 [1] = assay: MTT cytotoxicity assay; assay type: cell-based; conditions: Homo sapiens, HCT-116, HCT116, 48 h
# Description: as §1
# HCT116 p53 −/− = assay: DAPI staining for detection of apoptosis (chromatin condensation); assay type: cell-based
# Description: (§2) The cells were grown on coverslips in 24 well plates and incubated with respective drug or inhibitor for 24 h. They were then washed with PBS, fixed with chilled methanol-EDTA for 10 min and rehydrated with PBS for 10 min at room temperature. Successively, the cells were treated with DAPI (0.5 μg/ml) for 2 min in the dark. The coverslips were then mounted on fluoromount G and viewed at 40X in the UV region using a fluorescence microscope (Olympus IX71).
# HCT116 [2] = assay: as above; assay type: cell-based
# Description: as §2
# Colo 320 DM [3] = assay: MTT cytotoxicity assay; assay type: cell-based; conditions: Homo sapiens, 48 h
# Description: as §1
# Caco 2 = assay: MTT cytotoxicity assay; assay type: cell-based; conditions: Homo sapiens, Caco 2, 48 h
# Description: as §1
# DR5 = DR5 induction by western blotting; assay type: cell-based; conditions: cells with non functional p53 (HCT116 p53 −/−, SW620, SW480, HT29), ~1.5 X IC50
# Description: (§3) Cells were grown to 70–80 % confluency in 60 mm culture dishes. After drug treatment, they were harvested and lysed. Protein samples from tissues were collected by homogenizing the tissue in the presence of lysis buffer, followed by centrifugation for 20 min. The protein samples were run in a 10–12 % gel and transferred on to a PVDF membrane. The membranes were probed with specific primary antibodies (1:1000) overnight followed by secondary antibodies conjugated with horse radish peroxidase/alkaline phosphatase (1:2000) for 1 hr at room temperature and were developed by chemiluminescence or alkaline phosphatase method.
# Swiss Albino mice [4] = assay: Acute toxicity study; assay type: in vivo; conditions: for Final weight: after 14 days; for Initial weight: before drug administration
# Description: In acute toxicity studies, Swiss Albino mice were divided in to six groups of six animal each and DAT1 (12–50 mg/kg) was administered intraperitoneally (i.p) and observed for 14 days for signs of weight loss, dehydration or mortality. DAT1 was dissolved in vehicle cremaphor:ethanol (1:1) and diluted in 0.9 % saline.
# Swiss Albino mice were divided into 6 groups of 6 mice each and were injected with either DAT1 or vehicle intraperitoneally. […] Group I: 12mg/kg, Group II: 20 mg/kg, Group III: 30 mg/kg, Group IV: 40 mg/kg, Group V: 50 mg/kg
# Colo 320 DM [5] = assay: DAPI staining for detection of apoptosis (chromatin condensation); assay type: cell-based; conditions: approximately 1.5 times the IC50 concentration, 24 h
# Description: as §2
# Caco2 = assay: as above; assay type: cell-based; conditions: Caco2, approximately 1.5 times the IC50 concentration, 24 h
# Description: as §2
# [6] = system: HCT116 p53 −/− xenograft tumours; assay: Colon cancer xenograft study; assay type: in vivo, SCID/NOD mice
# Description: (§4) SCID/NOD mice were divided into groups of ten and allowed to acclimatize. After 5 days, tumours were raised by injecting HCT116 or HCT116 p53 −/− cells (1.5 × 10^5 cells suspended in PBS) subcutaneously in the inner flank region. Once the tumour volumes reached 20–80 mm^3, drug was administered intraperitoneally, thrice a week at different concentrations.
# HCT116 xenograft tumours = assay: Colon cancer xenograft study; assay type: in vivo, SCID/NOD mice
# Description: as §4
# ERK = ERK activation by western blotting; assay type: cell-based
# Description: as §3
# caspase 8 = assay: Caspase 8 activation by western blotting; assay type: cell-based; conditions: cell lines irrespective of their p53 status
# Description: as §3
# Swiss Albino mice [7] = assay: Sub-acute toxicity study; assay type: in vivo; conditions: for RBC / WBC / ALP / ALT / AST / BUN / Creatinine: 3 months; for ALP / ALT / AST / BUN / Creatinine: serum
# Description: In sub-acute toxicity studies, Swiss albino mice were divided into five groups of eight animals each. Three groups of Swiss Albino mice were administered (i.p injection) with 4, 8 or 16 mg/kg DAT1, and the control and vehicle control groups were administered with 0.9 % saline or vehicle respectively. Injections were given every alternate day for the first 10 days and after that, twice weekly for a period of 3 months. After 3 months animals were sacrificed and whole blood, liver and kidney were collected. Hematotoxicity was checked by RBC and WBC count. Hepatotoxicity was measured by monitoring the serum ALT and AST levels. Nephrotoxicity was measured by monitoring BUN and creatinine levels in the serum. ALP activity was measured for detection of liver or bone toxicity.
smiles,measurement,setting,value
"CC(=O)O[C@H]1C(=O)[C@@]2(C)[C@H]([C@H](OC(=O)c3ccccc3)[C@]3(O)C[C@H](OC(=O)[C@H](O)[C@@H](NC(=O)c4ccccc4)c4ccccc4)C(C)=C1C3(C)C)[C@]1(OC(C)=O)CO[C@@H]1C[C@@H]2O [Taxol, paclitaxel]",IC50,HT 29,10 ± 1.4 nM
same,IC50,HCT116 p53 -/-,6 ± 2 nM
same,IC50,SW 620,24.5 ± 6 nM
same,IC50,SW 480,31.5 ± 1.4 nM
same,IC50,HCT116 [1],14 ± 7 nM
"O=c1[nH]cc(F)c(=O)[nH]1 [5 fluoro uracil, 5-fluorouracil]",IC50,HT 29,20200 ± 770 nM
same,IC50,HCT116 p53 -/-,19300 ± 1340 nM
same,IC50,SW 620,9650 ± 330 nM
same,IC50,SW 480,18600 ± 680 nM
same,IC50,HCT116 [1],8690 ± 540 nM
CC[C@]1(O)C[C@@H]2CN(CCc3c([nH]c4ccccc34)[C@@](C(=O)OC)(c3cc4c(cc3OC)N(C)[C@H]3[C@@](O)(C(=O)OC)[C@H](OC(C)=O)[C@]5(CC)C=CCN6CC[C@]43[C@@H]65)C2)C1 [Vinblastine],IC50,HT 29,1.5 ± 0.7 nM
same,IC50,HCT116 p53 -/-,19.5 ± 0.7 nM
same,IC50,SW 620,300 ± 90 nM
same,IC50,SW 480,3380 ± 247 nM
same,IC50,HCT116 [1],4 ± 2 nM
same,apoptosis induction,"HCT116 p53 −/−; 0.01 μM, 24 h",failed to induce apoptosis
same,apoptosis induction,"HCT116 [2]; HCT116 p53 wild type, 0.01 μM, 24 h",large apoptotic response
"COc1ccc(Nc2nc(N)c(C(=O)c3ccccc3)s2)cc1 [DAT1, 4-Amino-5-benzoyl-2-(4-methoxyphenylamino)thiazole]",IC50,Colo 320 DM [3],655 ± 48 nM
same,IC50,Caco 2,5320 ± 162 nM
same,IC50,HT 29,200 ± 80 nM
same,IC50,HCT116 p53 -/-,709 ± 80 nM
same,IC50,SW 620,420 ± 70 nM
same,IC50,SW 480,795 ± 90 nM
same,IC50,HCT116 [1],300 ± 80 nM
same,DR5 upregulation,DR5,caused DR5 upregulation
same,Final weight,Swiss Albino mice [4]; 12 mg/kg i.p.,33.1 ± 1.56 g
same,Initial weight,Swiss Albino mice [4]; 12 mg/kg i.p.,32.4 ± 1.34 g
same,Final weight,Swiss Albino mice [4]; 20 mg/kg i.p.,33.46 ± 3.87 g
same,Initial weight,Swiss Albino mice [4]; 20 mg/kg i.p.,32.8 ± 5.44 g
same,Final weight,Swiss Albino mice [4]; 30 mg/kg i.p.,29.86 ± 2.82 g
same,Initial weight,Swiss Albino mice [4]; 30 mg/kg i.p.,27.2 ± 1.22 g
same,Final weight,Swiss Albino mice [4]; 40 mg/kg i.p.,27.8 ± 2.67 g
same,Initial weight,Swiss Albino mice [4]; 40 mg/kg i.p.,26.6 ± 2.4 g
same,Final weight,Swiss Albino mice [4]; 50 mg/kg i.p.,26.12 ± 2.14 g
same,Initial weight,Swiss Albino mice [4]; 50 mg/kg i.p.,25.6 ± 2.03 g
same,apoptosis (chromosome condensation),Colo 320 DM [5],38%
same,percentage of apoptotic cells,"HCT116 p53 −/−; DAT1 alone, 24 h",60%
same,percentage of apoptotic cells,HCT116 p53 −/−; DAT1 in the presence of MEK inhibitor U0126,5%
same,apoptosis (chromosome condensation),Caco2,32%
same,percentage of apoptotic cells,"HCT116 [2]; HCT116, DAT1 alone, 24 h",67%
same,percentage of apoptotic cells,"HCT116 [2]; HCT116, DAT1 in the presence of MEK inhibitor U0126",3%
same,reduction in tumour inhibition vs parental HCT116,[6]; 20 mg/kg,about 19%
same,tumour inhibition,"[6]; HCT116 p53 −/− tumours, 20 mg/kg i.p., thrice a week, 28 days",53.4%
same,mean tumour volume,"[6]; HCT116 p53−/− xenograft, treatment for 28 days, i.p.",reduced the mean tumour volume effectively in a concentration dependent way
same,tumour inhibition,"HCT116 xenograft tumours; HCT116 tumours, 20 mg/kg i.p., thrice a week, 28 days",72.3%
same,mean tumour volume,"HCT116 xenograft tumours; HCT116 xenograft, treatment for 28 days, i.p.",reduced the mean tumour volume effectively in a concentration dependent way
same,ERK activation,"ERK; Colo 320 DM or Caco2 cell lines with wild type Ras or Raf, ~1.5 times IC50",unable to activate ERK
same,P-ERK activation,ERK; HCT116 and HCT116 p53−/− cells,caused P-ERK activation
same,caspase 8 activation,caspase 8,caused caspase 8 activation
same,RBC,Swiss Albino mice [7]; 4 mg/kg i.p.,4.42 ± 0.75 million/mm^3
same,WBC,Swiss Albino mice [7]; 4 mg/kg i.p.,8100 ± 1979 per mm^3
same,ALP,Swiss Albino mice [7]; 4 mg/kg i.p.,158.32 ± 8.32 U/L
same,ALT,Swiss Albino mice [7]; 4 mg/kg i.p.,54.38 ± 4.15 U/L
same,AST,Swiss Albino mice [7]; 4 mg/kg i.p.,128 ± 25.1 U/L
same,BUN,Swiss Albino mice [7]; 4 mg/kg i.p.,29.8 ± 1.25 mg/dL
same,Creatinine,Swiss Albino mice [7]; 4 mg/kg i.p.,0.82 ± 0.1 mg/dL
same,RBC,Swiss Albino mice [7]; 8 mg/kg i.p.,4.48 ± 0.34 million/mm^3
same,WBC,Swiss Albino mice [7]; 8 mg/kg i.p.,6220 ± 1626.34 per mm^3
same,ALP,Swiss Albino mice [7]; 8 mg/kg i.p.,136.48 ± 10.69 U/L
same,ALT,Swiss Albino mice [7]; 8 mg/kg i.p.,53.845 ± 4.81 U/L
same,AST,Swiss Albino mice [7]; 8 mg/kg i.p.,128.165 ± 1.87 U/L
same,Creatinine,Swiss Albino mice [7]; 8 mg/kg i.p.,0.76 ± 0.07 mg/dL
same,RBC,Swiss Albino mice [7]; 16 mg/kg i.p.,4.475 ± 0.26 million/mm^3
same,WBC,Swiss Albino mice [7]; 16 mg/kg i.p.,4550 ± 264.575 per mm^3
same,ALP,Swiss Albino mice [7]; 16 mg/kg i.p.,155.61 ± 15.15 U/L
same,ALT,Swiss Albino mice [7]; 16 mg/kg i.p.,148.39 ± 14.55 U/L
same,AST,Swiss Albino mice [7]; 16 mg/kg i.p.,162.67 ± 12.73 U/L
same,BUN,Swiss Albino mice [7]; 16 mg/kg i.p.,29.8 ± 1.27 mg/dL
same,Creatinine,Swiss Albino mice [7]; 16 mg/kg i.p.,0.58 ± 0.09 mg/dL
same,body weight change,"Swiss Albino mice [7]; 4, 8 or 16 mg/kg i.p., end of 3 months",no significant change in the weight
